Entries after “also recorded” stand apart in the source; their conditions may differ. Like-named read-outs stand apart in the source and are kept apart here.
Assays:
[1] = system: benzodiazepine (BDZ)-binding sites; assay: Radioligand binding assay, [3H]flunitrazepam, rat cerebral cortex; details: compound 1 × 10^−6 M;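 note: low percentages indicate weak binding of the compound to the site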
Protocol: (§1) Binding experiments were conducted in 96-well microplates in a total volume of 200 μL of appropriate buffer. The reaction mixture included 50 μL solution of test compound, 50 μL of radioligand, and […] the tissue suspension. Rat cerebral cortex was used for each receptor. The radioactivity was measured in MicroBeta TriLux 1450-liquid scintillation counter (PerkinElmer, Waltham, MA, USA). Radioligand binding data were analyzed using iterative curve fitting routines (GraphPAD/Prism, Version 3.0, San Diego, CA, USA). Ki values were calculated from the Cheng and Prusoff equation [36].

[2] = system: maximal electroshock-induced seizures; assay: Maximal electroshock-induced seizure (MES) test in mice; assay type: in vivo, mouse; details: for p/t, number of animals protected against MES-induced seizures / number tested / responders at 300 mg/kg: 300 mg/kg i.p.; for responders at 300 mg/kg / ED50: Mus musculus, ip; for responders at 300 mg/kg: read-out: percent of animals protected against MES-induced seizures; for PI (TD50/ED50): protective index; for onset of action: significant protection as early as 15 min after parenteral administration
Protocol: Additionally, all efforts were made to minimize animal suffering and to use only the number of animals necessary to produce reliable scientific data.
In the initial stage of the study, groups of eight mice were supplied with the compounds (administered intraperitoneally) in a dose of 300 mg/kg and then exposed to electrical impulse at fixed intervals (15, 30, 60, 120 min).
Each mouse was used only once.
Fresh drug solutions were prepared on each day of experimentation and administered at 15, 30, 60 and 120 min. before the initiation of maximal electroconvulsions. Electroconvulsions were produced by a current (0.2 s stimulus duration; 500 V, 50 Hz, fixed current intensity of 25 mA) delivered via ear-clip electrodes by a Rodent Shocker generator (constant-current stimulator Type 221, Hugo Sachs Elektronik, Freiburg, Germany). The criterion for the occurrence of seizure activity was the tonic hind limb extension. The animals were administered with a constant dose of 300 mg/kg of each of the examined compounds and were subjected to MES-induced seizures. […] The animals were administered with different doses of the tested compounds so as to obtain a variable percentage of protection against maximal electroconvulsions, allowing the construction of dose-response relationship lines for each examined compound administered i.p. at various pretreatment times, according to Litchfield and Wilcoxon. Each ED50 value represents the dose of the studied compounds that is required to protect 50% of the animals tested against MES-induced seizures.

GABAA receptors = assay: Radioligand binding assay, [3H]muscimol, rat cerebral cortex; details: compound 1 × 10^−6 M, [3H]muscimol, rat cerebral cortex;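 note: low percentages indicate weak binding of the compound to the receptor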
Protocol: as §1, with “The radioactivity was measured in MicroBeta TriLux 1450-liquid scintillation counter (PerkinElmer, Waltham, MA, USA).” left out

[3] = pretreatment time 120 min, mice
[4] = 0.25 h, pretreatment time 15 min, mice
[5] = 0.5 h, pretreatment time 30 min, mice
[6] = 1 h, pretreatment time 60 min, mice
[7] = 2 h, pretreatment time 120 min, mice
[8] = pretreatment time 15 min, mice, read-out: ED50 ± S.E. (MES test)
[9] = pretreatment time 30 min, mice, read-out: ED50 ± S.E. (MES test)
[10] = pretreatment time 60 min, mice, read-out: ED50 ± S.E. (MES test)
[11] = pretreatment time 120 min, mice, read-out: ED50 ± S.E. (MES test)
[12] = chimney TD50 / MES ED50, pretreatment time 15 min
[13] = chimney TD50 / MES ED50, pretreatment time 30 min
[14] = chimney TD50 / MES ED50, pretreatment time 60 min
[15] = chimney TD50 / MES ED50, pretreatment time 120 min

| Structure (SMILES) | Percent of Specific Binding, BDZ [1] [%] | p/t, number of animals protected against MES-induced seizures / number tested ([2]; pretreatment time 15 min, mice) | p/t, number of animals protected against MES-induced seizures / number tested ([2]; pretreatment time 30 min, mice) | p/t, number of animals protected against MES-induced seizures / number tested ([2]; pretreatment time 60 min, mice) | p/t, number of animals protected against MES-induced seizures / number tested [2, 3] | responders at 300 mg/kg [2, 4] [%] | responders at 300 mg/kg [2, 5] [%] | responders at 300 mg/kg [2, 6] [%] | responders at 300 mg/kg [2, 7] [%] | Percent of Specific Binding, GABAA (GABAA receptors) [%] | melting point [°C] | further results |
| --- | --- | --- | --- | --- | --- | --- | --- | --- | --- | --- | --- | --- |
| S=c1[nH]nc(-c2cccc(Cl)c2)n1-c1ccccc1Br [Compound 5a, 4-(2-Bromophenyl)-5-(3-chlorophenyl)-2,4-dihydro-3H-1,2,4-triazole-3-thione] | 12 | 0/8 | 0/8 | 1/8 | 1/8 | 0 | 0 | 12.5 | 12.5 | 2 |  |  |
| Cc1ccc(-n2c(-c3cccc(Cl)c3)nn(CN3CCOCC3)c2=S)cc1 [Compound 22a, 5-(3-Chlorophenyl)-4-(4-methylphenyl)-2-(morpholin-4-ylmethyl)-2,4-dihydro-3H-1,2,4-triazole-3-thione] | 12 | 4/8 | 5/8 | 3/8 | 2/8 | 50 | 62.5 | 37.5 | 25 | 6 |  | anticonvulsant activity (in words) ([2]; MES test, mice): slightly weaker than that of valproate; also recorded: weak anticonvulsant activity; ED50 [2, 8]: 224 ± 20.9 mg/kg; ED50 [2, 9]: 228 ± 14.7 mg/kg; ED50 [2, 10]: 274 ± 10.9 mg/kg; ED50 [2, 11]: 448 ± 21.4 mg/kg; PI (TD50/ED50) [2, 12]: 1.5; PI (TD50/ED50) [2, 13]: 1.4; PI (TD50/ED50) [2, 14]: 1.6; PI (TD50/ED50) [2, 15]: 1.0; onset of action ([2]; MES, mice): quick onset of action |
| NCCCC(=O)O [GABA, γ-aminobutyric acid] |  |  |  |  |  |  |  |  |  | 82 |  |  |
| Cc1ccc(-n2c(-c3cccc(Cl)c3)nn(CN3CCN(c4ccccc4)CC3)c2=S)cc1 [Compound 23a, 5-(3-Chlorophenyl)-4-(4-methylphenyl)-2-[(4-phenylpiperazin-1-yl)methyl]-2,4-dihydro-3H-1,2,4-triazole-3-thione] | 7 | 0/8 | 0/8 | 0/8 | 0/8 | 0 | 0 | 0 | 0 | 23 |  |  |
| CCN(CC)c1ccc(-n2c(-c3ccc(Cl)cc3)n[nH]c2=S)cc1 [Compound 18a, 5-(4-Chlorophenyl)-4-[4-(diethylamino)phenyl]-2,4-dihydro-3H-1,2,4-triazole-3-thione] |  | 0/8 | 0/8 | 1/8 | 0/8 | 0 | 0 | 12.5 | 0 |  | 264 to 266 |  |
| S=c1n(CN2CCN(c3ccccc3)CC2)nc(-c2ccc(Cl)cc2)n1-c1ccc(Br)cc1 [Compound 29a, 4-(4-Bromophenyl)-5-(4-chlorophenyl)-2-[(4-phenylpiperazin-1-yl)methyl]-2,4-dihydro-3H-1,2,4-triazole-3-thione] |  | 0/8 | 0/8 | 0/8 | 0/8 | 0 | 0 | 0 | 0 |  | 178 to 180 |  |
| Cc1ccc(-c2nc3ccc(C)cn3c2CC(=O)N(C)C)cc1 [Zolpidem, reference compound] | 73 |  |  |  |  |  |  |  |  |  |  |  |
| S=c1n(CN2CCN(c3ccccc3)CC2)nc(-c2ccc(Cl)cc2)n1-c1ccccc1Br [Compound 26a, 4-(2-Bromophenyl)-5-(4-chlorophenyl)-2-[(4-phenylpiperazin-1-yl)methyl]-2,4-dihydro-3H-1,2,4-triazole-3-thione] |  | 0/8 | 0/8 | 0/8 | 0/8 | 0 | 0 | 0 | 0 |  | 140 to 142 |  |
| CN1C(=O)CN=C(c2ccccc2)c2cc(Cl)ccc21 [Diazepam, reference compound] | 83 |  |  |  |  |  |  |  |  |  |  |  |
| Fc1ccc(-n2c(-c3ccc(Cl)cc3)n[nH]c2=S)c(F)c1 [Compound 13a, 5-(4-Chlorophenyl)-4-(2,4-difluorophenyl)-2,4-dihydro-3H-1,2,4-triazole-3-thione] |  | 8/8 | 8/8 | 8/8 | 8/8 | 100 | 100 | 100 | 100 |  | 196 to 198 | ED50 [2, 8]: 104 ± 15.8 mg/kg; ED50 [2, 9]: 100 ± 30.1 mg/kg; ED50 [2, 10]: 109 ± 11.9 mg/kg; ED50 [2, 11]: 80 ± 10.9 mg/kg; ED50 ([2]; pretreatment times 15, 30, 60, 120 min, read-out: ED50 (MES), range over pretreatment times): 80 to 109 mg/kg; time to peak of the anticonvulsant action ([2]; after i.p. administration, MES, mice): 120 min; PI (TD50/ED50) [2, 12]: 1.9; PI (TD50/ED50) [2, 13]: 1.9; PI (TD50/ED50) [2, 14]: 1.6; PI (TD50/ED50) [2, 15]: 2.7; onset of action ([2]; MES, mice): quick onset of action |
| S=c1n(CN2CCOCC2)nc(-c2ccc(Cl)cc2)n1-c1ccccc1Br [Compound 25a, 4-(2-Bromophenyl)-5-(4-chlorophenyl)-2-(morpholin-4-ylmethyl)-2,4-dihydro-3H-1,2,4-triazole-3-thione] |  | 0/8 | 0/8 | 0/8 | 0/8 | 0 | 0 | 0 | 0 |  | 180 to 181 |  |
| Fc1ccc(N2CCN(Cn3nc(-c4ccc(Cl)cc4)n(-c4ccccc4Br)c3=S)CC2)cc1 [Compound 27a, 4-(2-Bromophenyl)-5-(4-chlorophenyl)-2-{[4-(4-fluorophenyl)piperazin-1-yl]methyl}-2,4-dihydro-3H-1,2,4-triazole-3-thione] |  | 0/8 | 0/8 | 0/8 | 0/8 | 0 | 0 | 0 | 0 |  | 168 to 170 |  |

Reference: article PMC6271529, “Studies on the Anticonvulsant Activity and Influence on GABA-ergic Neurotransmission of 1,2,4-Triazole-3-thione-Based Compounds” (Molecules, 2014)
